Results as given in PMC3444172 (The Journal of organic chemistry, 2012).
Like-named read-outs stand apart in the source and are kept apart here.

Legend:
[1] = target: Ashbya gossypii riboflavin synthase; details: cited from earlier work
[2] = target: baker's yeast riboflavin synthase; details: cited from earlier work
[3] = target: T1, M. tuberculosis lumazine synthase (recombinant homopentameric) (Mycobacterium tuberculosis, UniProt P9WHE9); details: previously reported compounds, cited from earlier work
[4] = test system: B. subtilis lumazine synthase (recombinant β60 capsid); details: previously reported compounds; cited from earlier work
[5] = target: T2, E. coli riboflavin synthase (recombinant) (Escherichia coli, UniProt P0AFU8); details: previously reported compounds, cited from earlier work
[6] = target: T3, S. pombe lumazine synthase (recombinant homopentameric) (Schizosaccharomyces pombe, UniProt Q9UUB1); assay: Kinetic assay of lumazine synthase inhibitors, S. pombe enzyme; type: biochemical
T3 sequence (Q9UUB1 1-159): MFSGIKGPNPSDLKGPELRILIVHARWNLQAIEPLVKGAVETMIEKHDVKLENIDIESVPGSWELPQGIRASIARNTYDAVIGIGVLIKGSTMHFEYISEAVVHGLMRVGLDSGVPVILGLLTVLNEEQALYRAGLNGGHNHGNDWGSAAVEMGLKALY

[7] = target: M. tuberculosis riboflavin synthase (recombinant) (Mycobacterium tuberculosis, UniProt P9WK35); assay: Kinetic assay of riboflavin synthase inhibitors, M. tuberculosis enzyme; type: biochemical
[8] = target: T2, E. coli riboflavin synthase (recombinant); assay: Kinetic assay of riboflavin synthase inhibitors, E. coli enzyme; type: biochemical
[9] = target: T1, M. tuberculosis lumazine synthase (recombinant homopentameric); type: biochemical
[10] = substrate 2 constant, substrate 1 varied, Tris·HCl pH 7.0
[11] = substrate 3 varied, Tris·HCl pH 7.0

T2 sequence (P0AFU8 whole entry): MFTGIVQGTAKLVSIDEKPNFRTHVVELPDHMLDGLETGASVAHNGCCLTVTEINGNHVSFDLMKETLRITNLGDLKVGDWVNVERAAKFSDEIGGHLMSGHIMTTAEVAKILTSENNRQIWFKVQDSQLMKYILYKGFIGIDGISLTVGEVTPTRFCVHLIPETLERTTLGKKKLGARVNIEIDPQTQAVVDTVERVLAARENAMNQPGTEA
M. tuberculosis riboflavin synthase (recombinant), sequence (P9WK35 whole entry): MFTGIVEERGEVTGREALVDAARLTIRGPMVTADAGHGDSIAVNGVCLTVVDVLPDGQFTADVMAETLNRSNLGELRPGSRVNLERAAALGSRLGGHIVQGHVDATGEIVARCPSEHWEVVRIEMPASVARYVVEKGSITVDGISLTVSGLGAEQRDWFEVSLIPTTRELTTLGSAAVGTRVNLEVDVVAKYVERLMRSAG
T1 sequence (P9WHE9 whole entry): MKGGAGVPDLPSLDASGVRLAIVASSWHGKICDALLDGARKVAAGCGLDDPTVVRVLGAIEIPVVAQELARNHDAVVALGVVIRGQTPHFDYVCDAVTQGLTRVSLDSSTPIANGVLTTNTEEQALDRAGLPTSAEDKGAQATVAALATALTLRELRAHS

O=c1[nH]c(=O)c2[nH]c(=O)c(=O)n(C[C@H](O)[C@H](O)[C@H](O)CO)c2[nH]1 [Compound 81, 6,7-dihydro-6,7-dioxo-8-ribityllumazine]
Ki [1]: 9 nM
Ki [2]: 25 nM
Kcat (rate constant ES → E + P) ([3]; Tris·HCl pH 7.0): 1.1 ± 0.1 m^−1
Mechanism of inhibition [3]: Competitive
Mechanism of inhibition [4]: Competitive
Kcat (rate constant ES → E + P) ([5]; Tris·HCl pH 7.0): 15 ± 0 m^−1
Mechanism of inhibition [5]: Competitive

Nc1c(OC[C@@H](O)[C@H](O)[C@@H](O)CO)[nH]c(=O)[nH]c1=O [Compound 29, 5-Amino-6-((2R,3R,4S)-2,3,4,5-tetrahydroxypentyloxy)pyrimidine-2,4(1H,3H)-dione]
Mechanism of inhibition [6]: Partial
Kcat (rate constant ES → E + P) [6, 10]: 1.3 ± 0.0 m^−1
Kis (ES + I ⇌ ESI) [6, 10]: 43 ± 8 µM
Ks (substrate dissociation constant, E + S ⇌ ES) [6, 10]: 1.2 ± 0.1 µM
Mechanism of inhibition [7]: Uncompetitive
Kcat (rate constant ES → E + P) [7, 11]: 0.25 ± 0.01 m^−1
Kis (ES + I ⇌ ESI) [7, 11]: 577 ± 121 µM
Ks (substrate dissociation constant, E + S ⇌ ES) [7, 11]: 5.6 ± 0.5 µM
Mechanism of inhibition [8]: Uncompetitive
Kcat (rate constant ES → E + P) [8, 11]: 3.2 ± 0.1 m^−1
Kis (ES + I ⇌ ESI) [8, 11]: >1000 µM
Ks (substrate dissociation constant, E + S ⇌ ES) [8, 11]: 2.5 ± 0.1 µM
Mechanism of inhibition [9]: Uncompetitive
Kcat (rate constant ES → E + P) ([9]; pH 7): 0.18 ± 0.01 m^−1
Kis (ES + I ⇌ ESI) [9, 10]: >1000 µM
Ks (substrate dissociation constant, E + S ⇌ ES) [9, 10]: 27 ± 2 µM
